Results as given in article PMC7982320 (Pharmacology Research & Perspectives, 2021).
“Also recorded” adds a separate entry of the source.

How the values were obtained:
[1] = biological target: T1, human OATP1B3 (Homo sapiens, UniProt Q9NPD5); experiment: Transporter inhibition, uptake assay; assay type: in vitro ADME
T1 sequence (Q9NPD5 1-702): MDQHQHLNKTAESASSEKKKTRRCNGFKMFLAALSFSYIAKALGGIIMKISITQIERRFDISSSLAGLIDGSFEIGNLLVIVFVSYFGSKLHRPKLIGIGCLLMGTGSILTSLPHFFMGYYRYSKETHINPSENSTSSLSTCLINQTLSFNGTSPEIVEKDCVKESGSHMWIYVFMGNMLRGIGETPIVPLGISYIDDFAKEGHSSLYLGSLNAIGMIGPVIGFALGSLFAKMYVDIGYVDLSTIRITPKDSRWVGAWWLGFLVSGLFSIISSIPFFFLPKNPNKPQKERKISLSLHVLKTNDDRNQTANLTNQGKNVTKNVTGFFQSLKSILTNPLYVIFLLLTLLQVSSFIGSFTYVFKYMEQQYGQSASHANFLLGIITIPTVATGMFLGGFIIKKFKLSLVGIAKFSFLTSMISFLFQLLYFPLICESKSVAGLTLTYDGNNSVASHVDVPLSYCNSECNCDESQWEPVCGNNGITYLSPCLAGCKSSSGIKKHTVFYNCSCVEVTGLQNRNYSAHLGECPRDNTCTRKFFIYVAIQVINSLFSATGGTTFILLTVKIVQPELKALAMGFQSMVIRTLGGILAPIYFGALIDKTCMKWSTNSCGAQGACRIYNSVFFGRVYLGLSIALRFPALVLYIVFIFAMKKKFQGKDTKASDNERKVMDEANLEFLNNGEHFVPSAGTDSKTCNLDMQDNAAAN

[2] = biological target: CYP2C9 (Homo sapiens, UniProt P11712); experiment: CYP inhibition in pooled human liver microsomes, diclofenac probe; assay type: in vitro ADME; conditions: read-out: IC50, No preincubation; CYP2C9, pooled HLMs, n = 3
[3] = biological target: CYP2B6 (Homo sapiens, UniProt P20813); assay type: in vitro ADME; conditions: read-out: IC50, No preincubation; CYP2B6, pooled HLMs, n = 3
[4] = biological target: T2, human BCRP (Homo sapiens, UniProt Q9UNQ0); experiment: Transporter inhibition, vesicular transport assay; assay type: in vitro ADME
T2 sequence (Q9UNQ0 1-655): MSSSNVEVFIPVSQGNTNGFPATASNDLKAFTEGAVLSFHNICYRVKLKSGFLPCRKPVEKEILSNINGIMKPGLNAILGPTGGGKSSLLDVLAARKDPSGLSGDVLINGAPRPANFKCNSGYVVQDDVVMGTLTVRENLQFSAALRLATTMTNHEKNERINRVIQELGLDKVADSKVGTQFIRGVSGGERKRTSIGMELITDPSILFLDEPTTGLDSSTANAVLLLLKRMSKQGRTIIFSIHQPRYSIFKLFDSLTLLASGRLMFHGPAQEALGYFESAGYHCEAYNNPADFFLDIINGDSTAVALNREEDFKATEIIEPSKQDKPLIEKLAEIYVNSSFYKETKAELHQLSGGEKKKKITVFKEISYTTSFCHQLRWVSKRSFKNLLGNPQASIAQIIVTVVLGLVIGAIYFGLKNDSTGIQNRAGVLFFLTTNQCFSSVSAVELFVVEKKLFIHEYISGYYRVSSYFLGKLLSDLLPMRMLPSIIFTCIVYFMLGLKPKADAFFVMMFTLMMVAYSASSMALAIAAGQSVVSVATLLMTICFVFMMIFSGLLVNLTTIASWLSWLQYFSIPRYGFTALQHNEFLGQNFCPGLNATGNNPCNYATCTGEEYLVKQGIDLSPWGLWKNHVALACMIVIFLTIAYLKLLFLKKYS

[5] = healthy male subjects, single oral dose of 60 mg 14C‐DFZ; cited from earlier work
[6] = combined DMD patient populations, DFZ 0.9 mg/kg/day; ref PTC internal data; cited from earlier work
[7] = system: CYP isoforms (1A2, 2B6, 2C8, 2C9, 2C19, 2D6, 3A4); experiment: Time‐dependent and mechanism‐based CYP inhibition; assay type: in vitro ADME, human; conditions: 30 min preincubation in absence and presence of NADPH

Sequence of CYP2C9 (P11712 whole entry): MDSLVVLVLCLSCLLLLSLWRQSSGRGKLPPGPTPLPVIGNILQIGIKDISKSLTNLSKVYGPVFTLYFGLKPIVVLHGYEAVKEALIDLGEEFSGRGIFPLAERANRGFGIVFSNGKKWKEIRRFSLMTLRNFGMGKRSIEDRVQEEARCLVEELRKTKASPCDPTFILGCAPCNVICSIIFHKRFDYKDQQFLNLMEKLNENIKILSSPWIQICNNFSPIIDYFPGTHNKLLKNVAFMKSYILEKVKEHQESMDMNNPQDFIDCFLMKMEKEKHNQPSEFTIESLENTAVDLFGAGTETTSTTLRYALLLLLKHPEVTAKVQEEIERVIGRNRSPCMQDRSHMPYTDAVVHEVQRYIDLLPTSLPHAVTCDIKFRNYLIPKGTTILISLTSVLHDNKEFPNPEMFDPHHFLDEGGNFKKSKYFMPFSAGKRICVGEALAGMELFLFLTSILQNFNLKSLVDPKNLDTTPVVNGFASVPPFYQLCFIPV
Sequence of CYP2B6 (P20813 whole entry): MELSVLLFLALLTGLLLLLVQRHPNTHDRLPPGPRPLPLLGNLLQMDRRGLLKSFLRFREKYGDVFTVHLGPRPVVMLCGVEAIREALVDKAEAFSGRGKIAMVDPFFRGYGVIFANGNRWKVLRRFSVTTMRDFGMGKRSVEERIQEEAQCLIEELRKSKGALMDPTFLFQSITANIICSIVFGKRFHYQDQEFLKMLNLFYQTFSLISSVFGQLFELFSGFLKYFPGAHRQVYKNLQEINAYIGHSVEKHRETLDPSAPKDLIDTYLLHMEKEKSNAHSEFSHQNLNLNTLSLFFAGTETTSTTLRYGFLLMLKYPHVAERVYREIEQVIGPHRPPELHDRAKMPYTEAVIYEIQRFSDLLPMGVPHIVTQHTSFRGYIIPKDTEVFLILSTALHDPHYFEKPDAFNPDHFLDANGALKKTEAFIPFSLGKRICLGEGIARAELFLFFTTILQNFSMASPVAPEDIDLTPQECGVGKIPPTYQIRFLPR

## CC1=N[C@]2(C(=O)CO)[C@@H](C[C@H]3[C@@H]4C[C@@H](O)C5=CC(=O)C=C[C@]5(C)[C@H]4[C@@H](O)C[C@@]32C)O1 [6β‐OH‐21‐desDFZ, 6β‐Hydroxy‐21‐desacetyl deflazacort]
[1]; OATP1B3, Cmax 0.34 µM, assumed 100% free
  estimated plasma Cmax/IC50 ratio: 0.008
[1]; OATP1B3 UPT, n = 3
  Maximum inhibition at 50 µM: 57 % of control
[1]; OATP1B3 UPT, brackets: 95% confidence interval
  IC50: 42.2 µM
[2]
  IC50: > 50 µM
[3]
  IC50: > 50 µM
[4]; BCRP VT, n = 3
  Maximum inhibition at 50 µM: <20 % of control
[4]; BCRP, up to 50 µM
  inhibitory interaction with transporter: no inhibitory interaction
[5]
  share of 0–24 h plasma levels of total radioactivity: 25%
[6]
  plasma Cmax at steady state, mean value: 142 ng/mL
[7]
  time‐dependent or mechanism‐based inhibition (IC50 shift): neither time‐dependent nor metabolism‐based; also recorded: did not appear to be a time‐dependent or mechanism‐based inhibitor
